Measured values as given in PMC5703966, “Systemic clearance and brain distribution of carbazole-based cyanine compounds as Alzheimer’s disease drug candidates” (Scientific Reports, 2017).

What was measured:
Assay in all cases: OATP substrate identification, uptake in stably transfected HEK293 cells
Details in all cases: 1 and 10 μM, 10 mins
[1] = biological target: T1, OATP1A2 (Homo sapiens, UniProt P46721)
T1 sequence (P46721 1-670): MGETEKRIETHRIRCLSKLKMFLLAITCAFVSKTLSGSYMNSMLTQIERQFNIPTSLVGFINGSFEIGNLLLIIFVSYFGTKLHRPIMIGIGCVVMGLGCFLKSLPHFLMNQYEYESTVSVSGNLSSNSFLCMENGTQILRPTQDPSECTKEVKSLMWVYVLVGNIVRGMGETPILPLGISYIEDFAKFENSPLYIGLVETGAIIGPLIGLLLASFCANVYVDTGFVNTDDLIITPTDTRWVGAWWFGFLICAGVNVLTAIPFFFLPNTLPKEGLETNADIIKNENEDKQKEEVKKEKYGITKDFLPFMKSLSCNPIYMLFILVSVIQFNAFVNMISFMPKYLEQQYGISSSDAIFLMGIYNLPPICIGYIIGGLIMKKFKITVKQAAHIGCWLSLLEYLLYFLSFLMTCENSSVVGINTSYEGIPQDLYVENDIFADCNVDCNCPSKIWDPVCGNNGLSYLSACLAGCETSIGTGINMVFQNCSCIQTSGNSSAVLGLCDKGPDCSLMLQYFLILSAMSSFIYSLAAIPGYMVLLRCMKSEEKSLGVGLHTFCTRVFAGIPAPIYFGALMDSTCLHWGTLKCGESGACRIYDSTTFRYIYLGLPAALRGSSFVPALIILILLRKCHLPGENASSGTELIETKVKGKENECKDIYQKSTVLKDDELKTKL
Procedure: (§1) Daily changes of medium were performed and on the second day after seeding using medium containing 10 mM sodium butyrate.
(§2) Stably transfected HEK cells and control vector-transfected HEK293 cells were first washed (3 × 1 mL) with prewarmed HBSS (pH 7.4) and then were incubated with 250 μL of HBSS containing compounds at concentrations of 1 and 10 μM. Cells were incubated for 10 mins at 37 °C for all experiments. After incubation, uptake was stopped by aspirating the incubation solution and washing each well 3 times with 200 μL of ice-old HBSS. The cells were lysed in 150 μL of 1 M NaOH for 30 mins, and then neutralized by adding equal volumes of 1 M HCl.
(§3) The following equations (3 and 4) were used to calculate the uptake rates (U, pmol/mg/min) and the OATP1B1, OATP1B3, OATP2B1 and OATP1A2 uptake ratio (UR):3 U=Clysate/P×T 4 UR=UOATP1B1/1B3/2B1/1A2/UHEK293−MOCK where C lysate is the compound concentration in cell lysates. P is the protein concentration in cell lysates. T is the incubation time. U OATP1B1/1B3/2B1/1A2 is the uptake rate obtained in HEK293 stably transfected OATP1B1, OATP1B3, OATP2B1 or OATP1A2 transportation. U HEK293-MOCK is the uptake rate obtained in control vector-transfected HEK293 transportation.

[2] = biological target: T2, OATP1B3 (Homo sapiens, UniProt Q9NPD5)
T2 sequence (Q9NPD5 1-702): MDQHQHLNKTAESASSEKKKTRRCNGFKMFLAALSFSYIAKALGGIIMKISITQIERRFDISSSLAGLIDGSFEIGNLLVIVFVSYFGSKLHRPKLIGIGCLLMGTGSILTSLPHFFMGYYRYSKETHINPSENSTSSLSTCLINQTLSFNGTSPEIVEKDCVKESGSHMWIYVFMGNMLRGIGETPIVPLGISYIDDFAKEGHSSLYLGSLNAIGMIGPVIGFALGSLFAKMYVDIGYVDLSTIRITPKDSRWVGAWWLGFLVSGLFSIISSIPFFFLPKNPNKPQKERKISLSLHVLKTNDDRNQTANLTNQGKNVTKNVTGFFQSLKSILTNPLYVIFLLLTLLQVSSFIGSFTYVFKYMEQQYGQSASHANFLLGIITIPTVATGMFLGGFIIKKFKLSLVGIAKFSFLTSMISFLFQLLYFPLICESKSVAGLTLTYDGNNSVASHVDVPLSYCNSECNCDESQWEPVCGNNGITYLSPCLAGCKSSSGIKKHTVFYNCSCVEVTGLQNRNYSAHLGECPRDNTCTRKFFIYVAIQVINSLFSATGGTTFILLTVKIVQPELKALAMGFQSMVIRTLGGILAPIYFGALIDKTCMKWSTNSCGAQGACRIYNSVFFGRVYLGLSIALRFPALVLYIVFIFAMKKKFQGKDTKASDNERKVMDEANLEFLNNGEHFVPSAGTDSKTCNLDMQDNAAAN
Procedure: as §1, §2, §3

[3] = biological target: T3, OATP1B1 (Homo sapiens, UniProt Q9Y6L6)
T3 sequence (Q9Y6L6 1-691): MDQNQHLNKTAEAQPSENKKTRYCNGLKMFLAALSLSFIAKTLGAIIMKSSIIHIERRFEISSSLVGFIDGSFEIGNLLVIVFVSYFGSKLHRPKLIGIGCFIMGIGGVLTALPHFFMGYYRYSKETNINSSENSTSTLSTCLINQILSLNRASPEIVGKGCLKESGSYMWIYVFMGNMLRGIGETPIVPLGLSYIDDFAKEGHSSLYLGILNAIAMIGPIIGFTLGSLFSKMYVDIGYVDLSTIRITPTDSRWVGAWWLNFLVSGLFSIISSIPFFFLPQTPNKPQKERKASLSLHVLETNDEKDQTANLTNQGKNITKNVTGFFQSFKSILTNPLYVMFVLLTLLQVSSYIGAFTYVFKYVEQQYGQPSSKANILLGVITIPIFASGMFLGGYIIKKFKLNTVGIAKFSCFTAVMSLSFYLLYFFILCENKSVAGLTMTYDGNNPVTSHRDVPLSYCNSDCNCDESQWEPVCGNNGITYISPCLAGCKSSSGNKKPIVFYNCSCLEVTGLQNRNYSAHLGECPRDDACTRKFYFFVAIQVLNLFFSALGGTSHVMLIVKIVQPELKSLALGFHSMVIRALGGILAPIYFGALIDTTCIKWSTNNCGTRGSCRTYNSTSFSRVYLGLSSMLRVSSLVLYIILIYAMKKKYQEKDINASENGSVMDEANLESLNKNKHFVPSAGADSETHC
Procedure: as §1, §2, §3

COCCOCCn1c2ccccc2c2cc(/C=C/c3cc[n+](C)c4ccccc34)ccc21.[I-] [SLM, (E)-4-(2-(9-(2-(2-methoxyethoxy)ethyl)-9H-carbazol-3-yl)-vinyl)-1-methyl-quinolin-1-iumiodide]
no significant differences: uptake by OATP1A2 transfected HEK293 versus WT cells [1] | uptake by OATP1B3 transfected HEK293 versus WT cells [2] | uptake by OATP1B1 transfected HEK293 versus WT cells [3]

COCCOCCn1c2ccccc2c2cc(/C=C/c3cc[n+](CCO)c4ccccc34)ccc21 [SLOH, (E)-1-(2-hydroxyethyl)-4-(2-(9-(2-(2-metho-xyethoxy)-ethyl)-9H-carbazol-3-yl)vinyl) quinolin-1-ium chloride]
no significant differences: uptake by OATP1A2 transfected HEK293 versus WT cells [1] | uptake by OATP1B3 transfected HEK293 versus WT cells [2] | uptake by OATP1B1 transfected HEK293 versus WT cells [3]
